Assay [1] has as its target T1, peroxisome proliferator-activated receptor gamma (PPARγ) (Homo sapiens, UniProt P37231).
T1 sequence (P37231 1-505): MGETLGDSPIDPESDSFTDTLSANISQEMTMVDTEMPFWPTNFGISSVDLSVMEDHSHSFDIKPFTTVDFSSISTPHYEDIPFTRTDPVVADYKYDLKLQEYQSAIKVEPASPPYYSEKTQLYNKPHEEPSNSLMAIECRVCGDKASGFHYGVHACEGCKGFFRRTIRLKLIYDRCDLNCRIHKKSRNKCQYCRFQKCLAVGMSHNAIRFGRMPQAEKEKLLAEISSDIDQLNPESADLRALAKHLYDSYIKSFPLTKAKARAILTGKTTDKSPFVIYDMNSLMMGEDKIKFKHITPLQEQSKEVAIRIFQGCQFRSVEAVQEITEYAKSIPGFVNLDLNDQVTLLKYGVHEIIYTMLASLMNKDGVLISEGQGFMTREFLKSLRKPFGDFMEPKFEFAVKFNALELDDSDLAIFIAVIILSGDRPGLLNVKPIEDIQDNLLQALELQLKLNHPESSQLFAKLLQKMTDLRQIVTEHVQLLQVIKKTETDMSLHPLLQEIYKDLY
Kind of assay: Competitive binding to PPARγ ([3H]rosiglitazone).

In assay [2] the target is Human DAPK1 (Homo sapiens, UniProt P53355). Kind of assay: DAPK1 activity, cell free kinase assay. The class given is biochemical. The settings on record: cell free assay. The protocol:
The effect of (+)-KDT501 and (−)-KDT501 on death-associated protein kinase 1 (DAPK1) activity was evaluated.
Human DAPK1 was incubated with 8 mM MOPS, pH 7.0, 0.2 mM EDTA, 250 μM ZIP peptide substrate ([…]), 10 mM MgOAc, and [γ-^33P-ATP] (specific activity approximately 500 cpm/pmol, concentration as required). (+)-KDT501 or (−)-KDT501 at varying concentrations (100, 30, 10, 1, 0.3, 0.1, 0.03, 0.01 μM) were added to the reaction mixture. The reaction was initiated by addition of the MgATP mix. After incubation for 40 minutes at room temperature, the reaction was stopped by addition of 3% phosphoric acid solution. 10 μL of reaction mixture was spotted onto a P30 filtermat, washed three times for five minutes in 75 mM phosphoric acid and once in methanol prior, then dried and subjected to scintillation counting.

Assay [3] deals with T2, PPARγ (Homo sapiens, UniProt P37231).
T2 sequence (P37231 1-505): T1 sequence (P37231 1-505)
Kind of assay: PPARγ luciferase reporter assay. The class given is cell-based. The protocol:
(§1) The functional effect of (+)-KDT501 on PPARα, PPARδ, and PPARγ activity was evaluated using a PPAR reporter assay (INDIGO Biosciences, PA). This assay utilizes non-human mammalian cells engineered to provide constitutive high level expression of PPARα, PPARδ, or PPARγ and containing a luciferase report gene specific to the appropriate PPAR. Following activation by agonist binding, PPAR induces expression of the luciferase reporter gene. Luciferase activity therefore provides a surrogate for measuring PPAR activity in agonist-treated cells.
(§2) Reporter cells were plated on a 96-well plate at 100 μL per well, and 100 μL of (+)-KDT501 at various final concentrations (25, 12.5, 6.25, 3.125, 1.56 and 0.78 μM) was added to each well. […] 0.1% DMSO was also used as a negative control for each assay. Plates are incubated for 20 hours in a humidified incubator at 37° C. and 5% CO2. After incubation, cell medium was discarded and the cells were treated with 100 μL of luciferase detection reagent for 15 minutes. Plates were analyzed using a luminometer (Victor2, Perkin Elmer). Average relative light unit (RLU) and standard deviation were analyzed using GraphPad Prism.
The PPAR activity assays were repeated as described above using both (+)-KDT501(12.5, 6.25, 3.125, 1.56, and 0.78 μM) and (−)-KDT501 (25, 12.5, 6.25, 3.125, 1.56, and 0.78 μM).
Background: In a reporter assay the amount or activity of a reporter protein is the signal.

Assay [4] addresses T3, PPARα (Homo sapiens, UniProt Q07869).
T3 sequence (Q07869 1-468): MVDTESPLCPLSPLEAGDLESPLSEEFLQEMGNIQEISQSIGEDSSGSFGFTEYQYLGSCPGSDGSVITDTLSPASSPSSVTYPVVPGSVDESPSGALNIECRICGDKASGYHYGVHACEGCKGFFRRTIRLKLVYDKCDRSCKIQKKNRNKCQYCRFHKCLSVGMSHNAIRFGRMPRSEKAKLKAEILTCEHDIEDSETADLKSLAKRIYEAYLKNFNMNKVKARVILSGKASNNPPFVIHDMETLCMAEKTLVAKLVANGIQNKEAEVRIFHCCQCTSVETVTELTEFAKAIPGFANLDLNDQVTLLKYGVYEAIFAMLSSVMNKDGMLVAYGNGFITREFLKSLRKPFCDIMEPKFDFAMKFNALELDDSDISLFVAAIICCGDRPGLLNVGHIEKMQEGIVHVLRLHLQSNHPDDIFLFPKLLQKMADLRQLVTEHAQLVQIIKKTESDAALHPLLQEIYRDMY
Kind of assay: PPARα luciferase reporter assay. The format is cell-based. The settings on record: reporter cells, 20 hours. The protocol:
as §1, §2

The target of assay [5] is T4, angiotensin II receptor type II (AGTR2) (Homo sapiens, UniProt P50052).
T4 sequence (P50052 1-363): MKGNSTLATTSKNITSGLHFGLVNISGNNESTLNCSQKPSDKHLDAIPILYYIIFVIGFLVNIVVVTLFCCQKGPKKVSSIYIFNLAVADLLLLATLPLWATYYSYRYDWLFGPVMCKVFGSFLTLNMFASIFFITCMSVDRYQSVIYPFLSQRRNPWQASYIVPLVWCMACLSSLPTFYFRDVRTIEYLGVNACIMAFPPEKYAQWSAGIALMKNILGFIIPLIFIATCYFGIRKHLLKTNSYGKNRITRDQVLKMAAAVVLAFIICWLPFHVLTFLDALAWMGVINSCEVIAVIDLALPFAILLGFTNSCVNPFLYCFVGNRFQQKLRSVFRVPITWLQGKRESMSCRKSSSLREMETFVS
As to the kind of experiment: Competitive binding to AGTR2 ([125I]CGP 42112A). The settings on record: binding target AGTR2; competitor ligand Angiotensin-II.

In assay [6] the target is T5, PPARδ (Homo sapiens, UniProt Q03181).
T5 sequence (Q03181 1-441): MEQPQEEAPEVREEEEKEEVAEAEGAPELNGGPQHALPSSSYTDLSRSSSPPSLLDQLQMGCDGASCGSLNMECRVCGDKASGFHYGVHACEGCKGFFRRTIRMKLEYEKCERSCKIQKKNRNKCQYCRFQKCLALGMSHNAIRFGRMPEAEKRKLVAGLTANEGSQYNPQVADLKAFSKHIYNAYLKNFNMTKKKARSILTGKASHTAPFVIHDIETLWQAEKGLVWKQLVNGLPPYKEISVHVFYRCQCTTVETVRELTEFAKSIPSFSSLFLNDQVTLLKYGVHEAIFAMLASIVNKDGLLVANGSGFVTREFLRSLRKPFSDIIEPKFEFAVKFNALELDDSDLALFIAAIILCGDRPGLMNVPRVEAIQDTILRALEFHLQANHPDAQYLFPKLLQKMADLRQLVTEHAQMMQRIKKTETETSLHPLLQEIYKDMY
As to the kind of experiment: PPARδ luciferase reporter assay. The class given is cell-based. The settings on record: reporter cells, 20 hours. As to the method:
as §1, §2

pIC50, pKi: −log10 of the molar value.

Chain of Human DAPK1 (P53355 whole entry): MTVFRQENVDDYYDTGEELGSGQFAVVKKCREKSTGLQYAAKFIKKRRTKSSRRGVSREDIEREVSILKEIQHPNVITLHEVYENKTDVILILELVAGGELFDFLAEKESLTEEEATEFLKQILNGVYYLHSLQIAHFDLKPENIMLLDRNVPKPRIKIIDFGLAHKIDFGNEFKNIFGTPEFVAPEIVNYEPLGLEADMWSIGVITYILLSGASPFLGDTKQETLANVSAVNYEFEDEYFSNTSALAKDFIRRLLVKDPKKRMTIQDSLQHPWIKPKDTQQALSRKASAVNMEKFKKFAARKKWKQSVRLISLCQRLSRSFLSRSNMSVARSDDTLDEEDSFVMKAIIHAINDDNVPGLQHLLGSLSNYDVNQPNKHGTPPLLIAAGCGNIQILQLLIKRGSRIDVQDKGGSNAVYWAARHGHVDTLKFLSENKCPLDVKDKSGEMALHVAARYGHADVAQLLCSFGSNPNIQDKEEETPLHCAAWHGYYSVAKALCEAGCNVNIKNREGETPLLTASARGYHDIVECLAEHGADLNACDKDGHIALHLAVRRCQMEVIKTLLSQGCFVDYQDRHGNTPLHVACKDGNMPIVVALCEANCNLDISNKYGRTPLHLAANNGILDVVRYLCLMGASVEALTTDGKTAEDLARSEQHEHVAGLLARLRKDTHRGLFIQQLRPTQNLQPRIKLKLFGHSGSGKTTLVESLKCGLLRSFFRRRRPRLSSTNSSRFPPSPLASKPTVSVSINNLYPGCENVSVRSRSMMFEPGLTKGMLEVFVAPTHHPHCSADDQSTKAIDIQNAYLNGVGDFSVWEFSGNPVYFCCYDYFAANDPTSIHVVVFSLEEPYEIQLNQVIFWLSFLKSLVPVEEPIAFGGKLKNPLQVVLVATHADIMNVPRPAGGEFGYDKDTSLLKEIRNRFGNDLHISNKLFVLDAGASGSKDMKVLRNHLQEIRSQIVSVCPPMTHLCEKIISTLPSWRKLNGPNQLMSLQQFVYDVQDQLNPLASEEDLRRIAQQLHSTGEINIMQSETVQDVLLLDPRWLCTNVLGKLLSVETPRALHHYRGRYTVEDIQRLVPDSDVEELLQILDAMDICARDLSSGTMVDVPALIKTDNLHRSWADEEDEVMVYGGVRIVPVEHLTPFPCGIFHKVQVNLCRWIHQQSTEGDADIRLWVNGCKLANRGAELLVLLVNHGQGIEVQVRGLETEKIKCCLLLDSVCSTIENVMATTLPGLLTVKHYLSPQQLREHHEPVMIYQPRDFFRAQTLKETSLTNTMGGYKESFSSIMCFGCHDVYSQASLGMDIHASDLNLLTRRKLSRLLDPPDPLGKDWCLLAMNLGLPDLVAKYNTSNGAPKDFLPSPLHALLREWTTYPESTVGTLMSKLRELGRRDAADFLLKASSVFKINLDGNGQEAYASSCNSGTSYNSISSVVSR

As usually defined, the pIC50 is −log10 of the IC50, conventionally taken in molar units. A higher pIC50 goes with a low IC50. In general, pKi refers to the Ki on a negative log10 scale, so that one unit is a factor of ten. A lower pKi goes with a large Ki. With `CC(C)CCC(=O)[C@]1(O)C(O)=C(C(=O)CC(C)C)C(=O)[C@H]1CCC(C)C` [(−)-KDT501], the pIC50 in assay [1] is 4.52; in assay [2], 4.39; in assay [5] it was 4.49. Moreover, the pKi in assay [1] and in assay [5] was 4.80 in each case. The nH in assay [1] (binding target PPARγ, competitor ligand Rosiglitazone) is recorded as 1.1; in assay [5], 0.9. The “PPARγ reporter activity (RLU)” value in assay [3] (concentration of test compound 3.13 μM) is 547 RLU; in assay [3] (concentration of test compound 6.25 μM) it was 972 RLU; in assay [3] (concentration of test compound 12.5 μM), 2407 RLU; in assay [3] (concentration of test compound 25 μM), 4244 RLU. Also, in assay [3] (reporter cells, 20 hours), the PPARγ activity result is “increased PPARγ activity, but to a significantly lesser degree than (+)-KDT501”. In assay [4], the PPARα activity entry is “little or no effect”. Also, the PPARδ activity entry in assay [6] is listed as “little or no effect”.

The values above are taken from patent US8410178B2, “CIS 3,4-dihydroxy-2-(3-methylbutanoyl)-5-(3-methylbutyl)-4-(4-methylpentanoyl)cyclopent-2-en-1-derivatives, substantially enantiomerically pure compositions and methods” (KinDex Therapeutics, LLC, priority 2010, dated 2013).
